Read-outs that look alike come from different tables or passages of the source.
How the values were obtained:
N-NTD = target: T1, N-NTD (Human respiratory syncytial virus A, UniProt P03418); experiment: Isothermal titration calorimetry; format: binding, respiratory syncytial virus (RSV); conditions: 18° C.; for Kd: 20 mM Tris-HCl pH 8, 150 mM NaCl, 5% Ethanol, 30 μM N-NTD, read-out: Kd (ITC); for ΔH (binding enthalpy, ITC) / −TΔS (entropic contribution, ITC): 1:1 interaction model
T1 construct: N N-terminal region (N-NTD, residues 31 to 252); made in house; host or cells: E. coli BL21(DE3)
T1 sequence (P03418 31-252): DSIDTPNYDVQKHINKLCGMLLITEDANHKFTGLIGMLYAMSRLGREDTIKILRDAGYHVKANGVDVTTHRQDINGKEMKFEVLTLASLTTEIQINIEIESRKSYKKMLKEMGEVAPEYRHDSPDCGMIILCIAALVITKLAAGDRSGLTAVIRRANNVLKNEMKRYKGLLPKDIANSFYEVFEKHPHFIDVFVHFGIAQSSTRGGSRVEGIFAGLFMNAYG
Procedure: ITC experiments were performed using the high precision VP-ITC system (MicroCal, GE Healthcare) and quantified with the Origin7 software provided by the manufacturer. All molecules were dissolved in 20 mM Tris-HCl, pH 8, 150 mM NaCl, 5% Ethanol and the binding enthalpies were measured by injecting the M76 or M61 solutions at 1.5 mM into calorimetric cell containing 30 μM N-NTD solution. Titrations were performed at 18° C. with 7 μl injections of M76 or M61 ligands every 350s. Heat signals were corrected for the heats of dilution and normalized to the amount of compound injected. Binding stoichiometries, enthalpy values and equilibrium dissociation constants were determined by fitting the corrected data to a 1:1 interaction model using the Origin7 software (OriginLab).
In parallel, the inventors investigated the properties of binding abilities of the di-substituted M76- and unsubstituted M61 to N-NTD by ITC. The purified N-NTD domain was loaded into the calorimeter cell and titrated with the compounds.

P-CTD/N-NTD interaction = target: T2, P-CTD/N-NTD interaction (Human respiratory syncytial virus A, UniProt P03418); experiment: Surface plasmon resonance competition assay (N-NTD binding to captured GST-P-CTD); design: species or system respiratory syncytial virus (RSV); conditions: 25° C., 20 mM TrisHCl pH 8, 150 mM NaCl, N-NTD 20 μM; read-out: Ki (inhibition of P-CTD/N-NTD interaction, SPR)
T2 construct: N N-terminal region (N-NTD, residues 31 to 252); made in house; host or cells: E. coli BL21(DE3)
T2 sequence (P03418 31-252): as above
Procedure: The assays were carried out at 25° C. in a buffer 20 mM TrisHCl, pH 8, 150 mM NaCl.
A goat anti-GST antibody (Biacore GST Capture Kit) was covalently coupled to a CMS sensorchip, using a Biacore 2000 instrument and the Amine Coupling Kit (GE Healthcare), reaching an immobilization density of around 10000 resonance units (RU; 1RU≈1 pg.mm-2). This surface was used to capture tightly GST-fused P-CTD to a density of 1200-1300 RU, or GST (800 RU) as a control. N-NTD (20 μM), alone or mixed and equilibrated for over 2 hours with the different inhibitor candidates (concentration range: 5-750 μM), was then injected over the GST-P-CTD and GST surfaces for one minute at a flow rate of […]. After each injection, the interaction buffer was flowed on the surface until all the N-NTD molecules dissociated (taking advantage of the transient nature of the N-NTD/P-CTD interaction). At the end of the series, the surfaces were regenerated with a 2-min 10 mM glycine-HCl (pH 1.5) wash and two 1-min washes with 0.05% SDS and 20 mM NaOH. The real-time interaction profiles were double referenced using the Scrubber 2.0 software (BioLogic Software), that is both the signals from the reference surface (with GST captured on the anti-GST antibody) and from blank experiments using the compounds alone were subtracted. The steady-state SPR responses (Req) were plotted against the compound concentration C and fitted using the BIAevaluation 4.1 software (GE Healthcare), according to the following equation:
[formula] where is the concentration of N-NTD (20 μM) and R0 the steady-state SPR response for N-NTD alone, allowing to determine the inhibition constants Ki for each compound. Isothermal Titration Calorimetry
SPR signals are proportional to the molecular weight of the analytes and therefore, given the small molecular weight of selected compounds, direct binding between N-NTD and BPdC would have too small signals on the used instrument. Instead, the inventors resorted to indirect competition assays to assess the effect of BPdC on the interaction between surface-bound P-CTD and N-NTD. The inventors first characterized by SPR the specific interactions between P-CTD in fusion with GST (GST-P-CTD) and N-NTD. GST-P-CTD was immobilized on an anti-GST antibody surface and serial dilutions of N-NTD were injected. The interaction between the two domains was transient, with a very fast dissociation rate (koff>1 s^−1) and a Kd of 30 μM. Competition experiments were then performed with the BPdC compounds. […] Both compounds carried a specific Cl substituent in ortho on the benzyl ring, but addition of another Cl atom in para position, on M76, somewhat enhanced inhibition. […] The inhibitory properties of the compounds were directly related to their affinities for N-NTD with M72<M61<M68<M81<M76.

[1] = target: T3, N-NTD (N N-terminal region, residues 31 to 252) (Human respiratory syncytial virus A, UniProt P03418); experiment: NMR chemical shift perturbation titration (1H,15N-HSQC), dissociation constants; format: binding, respiratory syncytial virus (RSV); conditions: 50 μM 15N-labeled N-NTD, two-site fast exchange model, 1:1 stoichiometry
T3 construct: N N-terminal region (N-NTD, residues 31 to 252); made in house; host or cells: E. coli BL21(DE3)
T3 sequence (P03418 31-252): as above
Procedure: N-NTD samples uniformly labeled with stable isotopes for NMR measurements were produced in minimal M9 medium supplemented with 1 g/L ^15NH4Cl and 3 g/L unlabeled or ^13C-glucose. The protocols were adapted from rich medium: an initial preculture of 15 mL in LB medium was used to inoculate a 500 mL M9 culture grown to saturation, and 500 mL of fresh M9 medium were added before induction. Purification was carried out as described above and followed by a final dialysis step to exchange the sample into NMR buffer (20 mM MES pH 6.5, 250 mM NaCl, 1.5 mM TCEP). A U-^13C, ^15N, 70%-^2H labeled N-NTD sample was prepared by starting from a 100 mL preculture in LB medium, used to inoculate 1 L of unlabeled M9. […]
Chemical shift perturbation (CSP) experiments were carried out with 50 μM U-^15N labeled N-NTD on a 700 MHz Bruker Avance III spectrometer equipped with a TXI probe by adding increasing amounts of M61, M68, M72, M76 and M81 from concentrated stock solutions (25, 10 or 5 mM) in ethanol. […] Dissociation constants were determined for a given residue, assuming a two-site fast exchange model with a 1:1 stoichiometry, by fitting the chemical shift difference (δ−δfree) as a function of molar ratios in Origin 7 software (OriginLab).
Combined ^1H and ^15N CSPs were calculated from: Δδ^1H^15N=√{square root over ((δ1H−δ1H^free)^2+(δ15N−δ15N^free)^2/100)}. […]

rHRSV-mCherry = format: cell-based, recombinant human RSV; conditions: 48 h, HEp-2 cells
Procedure: (§1) DMSO dilutions in the same range were also used as controls. HEp-2 cells (ATCC number CCL-23) were seeded at 5×10^4 cells per well in 96-well plates the day before. Infection was carried out with 500 pfu of rHRSV-mCherry in MEM without phenol red. 2 h after infection, the medium was changed to MEM with 2% fetal calf serum and without phenol red. Compound dilutions were pre-incubated with viral suspensions for 5 min at 37° C. before addition on cell monolayers in the 96-well plates.
Fluorescence, expressed in relative fluorescence units, was measured using a spectrofluorimeter (Tecan infinite M200PRO) with excitation and emission wavelengths of 580 and 620 nm, respectively. Non-infected HEp-2 cells were used a standard for fluorescence background level.

HEp-2 cells = experiment: CellTiter-Glo Luminescent cell viability assay (cytotoxicity); format: cell-based; conditions: 48 h
Procedure: as §1, with “Compound M76b was solubilized at 10 mM in 100% v/v DMSO and further diluted in water to 1 mM, then serially diluted threefold in minimum essential medium (MEM) without phenol red (Gibco) to a final concentration of 5 nM. DMSO” for “DMSO”, “plates. After treatment with compound M76b in DMSO or with DMSO alone, plates were incubated at 37° C. and 5% CO2 for 48 h.” for “plates.”
Cytotoxicity was assayed with the CellTiter-Glo Luminescent cell viability assay (Promega) after 48 h of incubation with DMSO alone or threefold dilutions of compound M76 in DMSO from 1 mM to 12 μM.

| SMILES | Kd (N-NTD) | ΔH (binding enthalpy, ITC) (N-NTD) | −TΔS (entropic contribution, ITC) (N-NTD) | Ki (P-CTD/N-NTD interaction) | Kd [1] | further results |
| --- | --- | --- | --- | --- | --- | --- |
| O=C(O)c1cc(C(=O)O)n(Cc2ccccc2)n1 [M61, 1-(Benzyl)-pyrazole-3,5-dicarboxylate] | 510 ± 170 µM | -6.42 ± 2.42 kcal/mol | 2.2 ± 1.8 kcal/mol | 893 ± 86 µM | – | – |
| O=C(O)c1cc(C(=O)O)n(Cc2ccc(Br)cc2)n1 [M68, 1-(4-bromoBenzyl)-pyrazole-3,5-dicarboxylate] | – | – | – | 610 ± 82 µM | – | – |
| O=C(O)c1cc(C(=O)O)n(Cc2ccc(F)cc2)n1 [M72, 1-(4-fluoroBenzyl)-pyrazole-3,5-dicarboxylate] | – | – | – | 1660 ± 290 µM | 680 µM | – |
| O=C(O)c1cc(C(=O)O)n(Cc2ccc(Cl)cc2Cl)n1 [M76, 1-(2,4-dichloroBenzyl)-pyrazole-3,5-dicarboxylate] | 48 ± 8 µM | -11.0 ± 3.6 kcal/mol | 5.4 ± 3.8 kcal/mol | 155 ± 25 µM | 20 µM | – |
| CC(=O)OCOC(=O)c1cc(C(=O)OCOC(C)=O)n(Cc2ccc(Cl)cc2Cl)n1 [M76b] | – | – | – | – | – | relative fluorescence (rHRSV-mCherry; 111 μM, relative to control without M76b and DMSO): 40%; relative fluorescence (rHRSV-mCherry; 333 μM, relative to control without M76b and DMSO): less than 20%; relative fluorescence (rHRSV-mCherry; concentrations under 12 μM): above 80%; cell survival (HEp-2 cells; 111 μM): more than 95%; cell survival (HEp-2 cells; 333 μM): 25% |
| O=C(O)c1cc(C(=O)O)n(Cc2ccccc2Cl)n1 [M81, 1-(2-chloroBenzyl)-pyrazole-3,5-dicarboxylate] | – | – | – | 247 ± 39 µM | – | – |

From US10213413B2 (priority 2014, dated 2019)
